The source made the active and inactive calls. The calls are words filed in the database; no cut-off is given here.
Tests used:
[1] = target: c-Jun N-terminal kinase (Mus musculus) (UniProt Q91Y86+Q9WTU6+Q61831); assay: Inhibition of LPS-induced JNK phosphorylation in BALB/c mouse at 30 mg/kg administered 6 hrs after LPS stimulation by western blot analysis; format: organism-based
Mus musculus [2] = assay: Antiinflammatory activity in BALB/c mouse model of LPS-induced acute respiratory distress syndrome assessed as reduction in neutrophils in BALF at 20 to 60 mg/kg administered 6 hrs after LPS-stimulation; format: functional, organism-based; details: dose 20-60 mg/kg
Mus musculus [3] = assay: Toxicity in BALB/c mouse model of LPS-induced acute respiratory distress syndrome assessed as reduction in body mass loss percentage at 30 mg/kg administered 6 hrs after LPS-stimulation; format: organism-based; details: in vivo
Mus musculus [4] = assay: Antiinflammatory activity in BALB/c mouse model of LPS-induced acute respiratory distress syndrome assessed as reduction in pulmonary edema by measuring wet/dry weight ratio at 30 mg/kg administered 6 hrs after LPS-stimulation and measured after […]; format: functional, organism-based
Mus musculus [5] = assay: Antiinflammatory activity in BALB/c mouse model of LPS-induced acute respiratory distress syndrome assessed as reduction in leukocytes in peripheral blood at 30 mg/kg administered 6 hrs after LPS-stimulation and measured after 24 hrs by Neubauer counting chamber based analysis; format: functional, organism-based
Mus musculus [6] = assay: Antiinflammatory activity in BALB/c mouse model of LPS-induced acute respiratory distress syndrome assessed as reduction in neutrophils in peripheral blood at 30 mg/kg administered 6 hrs after LPS-stimulation and measured after 24 hrs by Diff-quick stain based analysis; format: functional, organism-based
Mus musculus [7] = assay: Antiinflammatory activity in BALB/c mouse model of LPS-induced acute respiratory distress syndrome assessed as reduction in monocytes in peripheral blood at 30 mg/kg administered 6 hrs after LPS-stimulation and measured after 24 hrs by Diff-quick stain based analysis; format: functional, organism-based
Mus musculus [8] = assay: Antiinflammatory activity in BALB/c mouse model of LPS-induced acute respiratory distress syndrome assessed as reduction in total inflammatory cells in BALF at 30 mg/kg administered 6 hrs after LPS-stimulation by Diff-quick stain based analysis; format: functional, organism-based
Mus musculus [9] = assay: Antiinflammatory activity in BALB/c mouse model of LPS-induced acute respiratory distress syndrome assessed as reduction in macrophages in BALF at 30 mg/kg administered 6 hrs after LPS-stimulation by Diff-quick stain based analysis; format: functional, organism-based
Mus musculus [10] = assay: Antiinflammatory activity in BALB/c mouse model of LPS-induced acute respiratory distress syndrome assessed as reduction in neutrophils in BALF at 30 mg/kg administered 6 hrs after LPS-stimulation by Diff-quick stain based analysis; format: functional, organism-based
Mus musculus [11] = assay: Antiinflammatory activity in BALB/c mouse model of LPS-induced acute respiratory distress syndrome assessed as reduction in IL-6 level in BALF at 30 mg/kg administered 6 hrs after LPS-stimulation by ELISA; format: functional, organism-based
Mus musculus [12] = assay: Antiinflammatory activity in BALB/c mouse model of LPS-induced acute respiratory distress syndrome assessed as reduction in IL-1beta level in BALF at 30 mg/kg administered 6 hrs after LPS-stimulation by ELISA; format: functional, organism-based
Mus musculus [13] = assay: Antiinflammatory activity in BALB/c mouse model of LPS-induced acute respiratory distress syndrome assessed as reduction in TNF-alpha level in BALF at 30 mg/kg administered 6 hrs after LPS-stimulation by ELISA; format: functional, organism-based
Mus musculus [14] = assay: Antiinflammatory activity in BALB/c mouse model of LPS-induced acute respiratory distress syndrome assessed as reduction in polymorphonuclear cells in alveolar septa at 30 mg/kg administered 6 hrs after LPS-stimulation by pointing-count technique; format: functional, organism-based
Mus musculus [15] = assay: (§1) Antiinflammatory activity in BALB/c mouse model of LPS-induced acute respiratory distress syndrome assessed as reduction in iNOS expression in alveolar septa at 30 mg/kg administered 6 hrs after LPS-stimulation and measured after 24 hrs by pointing-count technique based immunohistochemistry analysis; format: functional, organism-based
Mus musculus [16] = assay: as §1, with “9-iso-PGF2alpha” for “iNOS”; format: functional, organism-based
Mus musculus [17] = assay: Antiinflammatory activity in BALB/c mouse model of LPS-induced acute respiratory distress syndrome assessed as reduction in density of MMP-9 positive cells in lung parenchyma at 30 mg/kg administered 6 hrs after LPS-stimulation by pointing-count technique based immunohistochemistry analysis; format: functional, organism-based
Mus musculus [18] = assay: Antiinflammatory activity in BALB/c mouse model of LPS-induced acute respiratory distress syndrome assessed as reduction in density of TIMP-1 positive cells in lung parenchyma at 30 mg/kg administered 6 hrs after LPS-stimulation by pointing-count technique based immunohistochemistry analysis; format: functional, organism-based
Mus musculus [19] = assay: as §1, with “collagen deposition” for “iNOS expression”, “lung parenchyma” for “alveolar septa”; format: functional, organism-based
Mus musculus [20] = assay: Antiinflammatory activity in BALB/c mouse model of LPS-induced acute respiratory distress syndrome assessed as improvement in lung mechanics by measuring respiratory system elastance at 30 mg/kg administered 6 hrs after LPS-stimulation and measured after 24 hrs by forced oscillation technique; format: functional, organism-based
Mus musculus [21] = assay: Antiinflammatory activity in BALB/c mouse model of LPS-induced acute respiratory distress syndrome assessed as improvement in lung mechanics by measuring tissue damping at 30 mg/kg administered 6 hrs after LPS-stimulation and measured after 24 hrs by forced oscillation technique; format: functional, organism-based
Mus musculus [22] = assay: Antiinflammatory activity in BALB/c mouse model of LPS-induced acute respiratory distress syndrome assessed as improvement in lung mechanics by measuring tissue elastance at 30 mg/kg administered 6 hrs after LPS-stimulation and measured after 24 hrs by forced oscillation technique; format: functional, organism-based
Mus musculus [23] = assay: Antiinflammatory activity in BALB/c mouse model of LPS-induced acute respiratory distress syndrome assessed as improvement in lung mechanics by measuring respiratory system resistance at 30 mg/kg administered 6 hrs after LPS-stimulation and measured after 24 hrs by forced oscillation technique; format: functional, organism-based
Mus musculus [24] = assay: Antiinflammatory activity in BALB/c mouse model of LPS-induced acute respiratory distress syndrome assessed as reduction in lymphocytes in peripheral blood at 30 mg/kg administered 6 hrs after LPS-stimulation and measured after 24 hrs by Diff-quick stain based analysis; format: functional, organism-based
Mus musculus [25] = assay: Antiinflammatory activity in BALB/c mouse model of LPS-induced acute respiratory distress syndrome assessed as reduction in inflammatory cells in alveolar septa at 30 mg/kg administered 6 hrs after LPS-stimulation; format: functional, organism-based

c-Jun N-terminal kinase (Mus musculus), sequence (Q61831 whole entry, looked up): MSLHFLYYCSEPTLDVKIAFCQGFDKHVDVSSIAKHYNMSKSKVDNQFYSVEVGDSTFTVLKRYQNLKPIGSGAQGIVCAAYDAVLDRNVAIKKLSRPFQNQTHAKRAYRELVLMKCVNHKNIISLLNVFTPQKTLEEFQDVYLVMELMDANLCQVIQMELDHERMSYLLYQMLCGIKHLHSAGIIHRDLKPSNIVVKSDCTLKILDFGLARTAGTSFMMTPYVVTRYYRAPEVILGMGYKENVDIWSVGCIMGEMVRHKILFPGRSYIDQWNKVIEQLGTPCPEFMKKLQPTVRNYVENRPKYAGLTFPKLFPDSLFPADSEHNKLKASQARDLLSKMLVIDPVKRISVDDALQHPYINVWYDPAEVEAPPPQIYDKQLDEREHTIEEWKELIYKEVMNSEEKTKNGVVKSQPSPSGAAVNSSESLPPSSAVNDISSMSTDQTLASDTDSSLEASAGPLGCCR
c-Jun N-terminal kinase (Mus musculus), sequence (Q91Y86 whole entry, looked up): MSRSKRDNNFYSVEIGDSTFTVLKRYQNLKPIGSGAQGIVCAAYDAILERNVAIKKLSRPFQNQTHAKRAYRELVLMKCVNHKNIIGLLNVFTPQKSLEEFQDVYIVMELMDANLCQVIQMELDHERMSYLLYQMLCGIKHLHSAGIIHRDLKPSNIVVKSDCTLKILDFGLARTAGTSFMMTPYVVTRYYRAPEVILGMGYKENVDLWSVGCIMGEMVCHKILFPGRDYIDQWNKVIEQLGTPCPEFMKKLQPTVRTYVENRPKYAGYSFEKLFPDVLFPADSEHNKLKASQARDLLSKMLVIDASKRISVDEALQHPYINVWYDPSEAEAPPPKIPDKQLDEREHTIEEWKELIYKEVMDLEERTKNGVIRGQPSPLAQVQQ
c-Jun N-terminal kinase (Mus musculus), sequence (Q9WTU6 whole entry, looked up): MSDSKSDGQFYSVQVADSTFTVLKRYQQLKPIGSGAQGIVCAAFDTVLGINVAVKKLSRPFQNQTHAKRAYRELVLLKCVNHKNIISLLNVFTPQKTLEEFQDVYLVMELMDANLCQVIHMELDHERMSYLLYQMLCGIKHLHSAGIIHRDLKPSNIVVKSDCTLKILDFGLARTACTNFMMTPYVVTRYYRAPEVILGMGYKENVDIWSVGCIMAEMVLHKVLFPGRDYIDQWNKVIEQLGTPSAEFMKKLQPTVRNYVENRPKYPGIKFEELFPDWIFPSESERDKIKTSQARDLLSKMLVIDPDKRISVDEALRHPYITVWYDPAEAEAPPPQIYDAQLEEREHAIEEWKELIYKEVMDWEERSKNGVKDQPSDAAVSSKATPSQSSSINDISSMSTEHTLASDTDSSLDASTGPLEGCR

## C=CCc1ccc(Oc2cc(CC=C)cc(OC)c2O)c(OC)c1
[1]
  inhibition: Active

## C=CCc1ccc(O)c(OC)c1 [EUGENOL]
Mus musculus [2]
  Activity: Active
Mus musculus [3]
  Activity: Non-Toxic
Mus musculus [4]
  Activity: Active
Mus musculus [5]
  Activity: Active
Mus musculus [6]
  Activity: Active
Mus musculus [7]
  Activity: Active
Mus musculus [8]
  Activity: Active
Mus musculus [9]
  Activity: Active
Mus musculus [10]
  Activity: Active
Mus musculus [11]
  Activity: Active
Mus musculus [12]
  Activity: Active
Mus musculus [13]
  Activity: inactive
Mus musculus [14]
  Activity: Active
Mus musculus [15]
  Activity: Active
Mus musculus [16]
  Activity: Active
Mus musculus [17]
  Activity: Active
Mus musculus [18]
  Activity: Active
Mus musculus [19]
  Activity: Active
[1]
  inhibition: Active
Mus musculus [20]
  Activity: Active
Mus musculus [21]
  Activity: Active
Mus musculus [22]
  Activity: Active
Mus musculus [23]
  Activity: inactive
Mus musculus [24]
  Activity: Active
Mus musculus [25]
  Activity: Active
